Measured values as given in a melting point compilation (Tetko et al.).

melting point	SMILES
314 °C	S=c1nnc(-c2ccccc2)c(Nc2ccccc2Cl)[nH]1
231 °C	COc1cc2ccc(=O)oc2c(O)c1O
71.5 °C	C=C(C)C1CC=C(C)C(=NO)C1 (stereo not drawn)
297 °C	Nc1nnc(-c2ccccc2)c(Nc2ccc(Cl)cc2)n1
59 to 61 °C	CCOC(=O)c1cc2cc(OC)ccc2o1
155 °C	Oc1ccccc1C=Nn1c(S)nnc1C(F)(F)F
173 °C	CC(=O)CCc1cc2c(cc1[N+](=O)[O-])CCC(C)N2C(=O)c1ccc([N+](=O)[O-])cc1 (stereo not drawn)
91 to 93 °C	CC(C)(C)OC(=O)N1CCC(c2nc(C=O)cs2)CC1
77 °C	Oc1ccc(-c2ccccc2)cc1Cl
206 °C	c1ccc2cc3c4ccccc4c4ccccc4c3cc2c1
92 °C	CC(=O)NCc1cnccc1C
91 °C	C=CCNC(SC)=C(C#N)C#N
271 to 272 °C	Cn1c(=S)[nH]c2ccccc2c1=O
182 °C	Nc1cccc(-n2ccccc2=O)c1
166 °C	Cc1cc(C(=O)O)cc(C)c1F
105 °C	Cc1ccc(C(O)c2ccccc2O)cc1 (stereo not drawn)
200 °C	Brc1c(Br)c(Br)c(Oc2ccccc2)c(Br)c1Br
148 °C	CCCOC(=O)c1cc(O)c(O)c(O)c1
103 to 107 °C	Cc1cncc(N2CCC(CO)CC2)n1
145 to 146 °C	CSc1nc(=O)n(C)c2c1CCC2
54 °C	CC(=O)c1ccc(CO)cc1
-26 °C	FC(F)(F)c1ccc(Cl)cc1Cl
151 °C	O=C(O)c1ccc(C(F)(F)F)cc1C(=O)O
128 °C	Cc1cc(=O)n(-c2ccccc2)[nH]1
89 °C	CCN(CC)CN1C(=O)/C(=C\c2ccc(Cl)cc2)SC1=S
190 °C	BrC(Br)(Br)c1ccc2cc3ccc(C(Br)(Br)Br)nc3cc2n1
156 °C	N#CC(=CNc1ccccc1)c1ccccc1

melting point	SMILES
138 °C	N#Cc1cc(I)c(O)c([N+](=O)[O-])c1
82 to 84 °C	Cc1cc(C)n(CN(CCO)Cn2nc(C)cc2C)n1
48 °C	Fc1c(CBr)cccc1C(F)(F)F
-3 °C	CCCCCCc1ccc2ccccc2c1
230 °C	Cn1c(=O)c(C2=NNC(=O)C2=NNc2cccnc2)c(O)c2ccccc21
75.8 °C	OCc1cc(C(O)CNCCCCCCOCCCCc2ccccc2)ccc1O (stereo not drawn)
237 °C	O=C1Cc2cc3c(cc21)CC3=O
154 to 155 °C	CC1(c2ccccc2)CC(C(=NOCC(=O)c2ccccc2)c2cc3ccccc3o2)C1 (stereo not drawn)
136 to 140 °C	O=C(O)C12CC3CC(CC(Cl)(C3)C1)C2
141 °C	N#CC1(c2ccccc2)Cc2ccccc2C(=O)O1 (stereo not drawn)
83 °C	Clc1cc(Cl)c(-c2c(Cl)cc(Cl)c(Cl)c2Cl)cc1Cl
143 °C	COc1ccc(O)c(C(=O)O)c1
348 °C	CC1(C)CC(=O)C2=C(C1)Nc1ccc3ccccc3c1C2c1ccc(Cl)cc1Cl (stereo not drawn)
189 °C	Clc1cccc2cc3c(Cl)cccc3cc12
103 to 104 °C	Cc1cc(I)c(C)cc1I
122 °C	O=C1OC(c2ccccc2)=N/C1=C\c1ccc(Br)o1
80 to 82 °C	O=C(Cl)c1ccc(Oc2ccccc2)nc1
137 to 139 °C	O=C(Nc1ccccn1)c1ccccc1Cl
166 °C	O=c1c2ccccc2cc2ccccn12
225 °C	O=C(O)C(Br)C(Br)c1cccc(C(Br)C(Br)C(=O)O)c1 (stereo not drawn)
164 °C	CC(C)C1=CC2=C(CC1)C1(C)CCCC(C)(C(=O)O)C1CC2 (stereo not drawn)
68 °C	Oc1c(Cl)cc(Cl)cc1Br
55 to 57 °C	O=S(=O)(c1ccc(Cl)cc1)C(F)(F)C(F)Cl (stereo not drawn)
152 °C	Cc1c(C)c(C)c(N)c(C)c1C
147 °C	C#CC1(O)CC[C@@]2(C)C(CC[C@@H]3[C@@H]2CC[C@@]2(C)[C@H]3CC[C@]2(O)C#C)C1 (stereo partly drawn)
108 °C	Cc1ccc(-c2onc(C(=O)c3ccc4ccccc4c3)c2S(=O)(=O)c2ccccc2)cc1
90 °C	CC(C(=O)O)N(C)C(=O)OC(C)(C)C (stereo not drawn)

melting point	SMILES
217 °C	COc1cc([C@@H](O)[C@H](CO)Oc2c(OC)cccc2OC)cc(OC)c1O
94 to 95 °C	O=C1CCSc2ccc(F)cc21
113 to 114 °C	Cn1nc(-c2cccs2)cc1C(=O)Cl
111 to 116 °C	CC(=O)Oc1ccc(N=C2C=CC(=O)C=C2)cc1
92 to 95 °C	Cc1onc(-c2c(Cl)cccc2Cl)c1C(=O)Cl
148 to 149 °C	CC(=O)Nc1c(F)ccc([N+](=O)[O-])c1F
180 °C	O=C(OCC(O)CO)c1ccccc1Nc1ccnc2c(C(F)(F)F)cccc12 (stereo not drawn)
287 to 291 °C	Nc1cnccc1C(=O)O
274 °C	CC1(C)OC2CC3C4CCC5=CC(=O)C=CC5(C)C4C(O)CC3(C)C2(C(=O)CO)O1 (stereo not drawn)
79.5 °C	COc1ccccc1Oc1ccccc1OC
79 °C	O=C1CCCC2Cc3ccccc3C(=O)C12 (stereo not drawn)
171 °C	Cc1cc(C(F)(F)F)n2nc(N)c(/N=N/c3cccc(C(F)(F)F)c3)c2n1
152 °C	Oc1c2ccccc2cc2ccccc12
115 °C	CCC(=O)C1CCCCC1C(C)(C)C(=O)O (stereo not drawn)
196 to 197 °C	NC(=NO)c1cccc(C(=O)O)c1
105 °C	OCC(O)CN1CCN(c2ccccc2)CC1 (stereo not drawn)
110 to 114 °C	COc1cc2c(cc1OC)C(CC#N)NCC2 (stereo not drawn)
110 °C	CC(C)OC(=O)C1(S(=O)(=O)c2ccc([N+](=O)[O-])cc2)CCCCC1
164 °C	COc1ccc2c(C(=S)N(C)CC(=O)O)cccc2c1C(F)(F)F
231 to 232 °C	Cc1oc(-c2ccc(Cl)cc2)cc1C(=O)O
188 to 190 °C	Cc1nc(C(F)(F)F)c(C(=O)O)cc1-c1nc(-c2ccccc2)cs1
156 to 158 °C	CSc1nc(N)ns1
75 °C	CC(=O)CCc1oc2ccc(Cl)cc2c1-c1ccc(C)o1
3 to 5 °C	CC1=CC(=O)CC1
160 to 165 °C	O=C(O)C1(c2ccc(F)cc2)CCCC1
194 °C	NCC1OC(OC2C(N)CC(N)C(O)C2OC2OC(CO)C(O)C2O)C(N)C(O)C1O (stereo not drawn)

SMILES	melting point
CCNC(=O)NC(=O)C(C#N)=NOC	161 °C
C=CCl	-154 °C
OCCN1CCCCC1C(c1ccccc1)c1ccccc1 (stereo not drawn)	106 °C
COP(=S)(OC)Oc1ccc(Sc2ccc(OP(=S)(OC)OC)cc2)cc1	30.3 °C
N#CC1C(=N)Oc2c(c(=O)oc3ccccc23)C1c1ccc(Br)cc1 (stereo not drawn)	254 °C
CCC(=O)OC1CCC2(C)C(=CCC3C2CCC2(C)C(OC(=O)CC)CCC32)C1 (stereo not drawn)	113 °C
Cc1ccccc1CP(=O)(O)O	195 to 196 °C
Cc1ccc(NC(=O)N(C)C)cc1Cl	148 °C
